Measured values reported in patent US20050288259A1, “Composition” (priority 2002, published 2005).

Experiments:
[1] = tested on: L. cuprina diflubenzuron-resistant strain (Emmaville); assay: In vitro first stage larvae exposure, prevention of adult fly emergence, diflubenzuron-resistant strain; set-up: species or system Lucilia cuprina
Description: Dicyclanil and diflubenzuron belong to different chemical families but are loosely grouped into a large class commonly known as “insect growth regulators”. Importantly both compounds interfere differently with the various development stages of insects. […] The invention makes use of the fact that dicyclanil will control the strains of blowfly that diflubenzuron is ineffective against.
Fly larvae belonging to a diflubenzuron-susceptible strain (LS) and a diflubenzuron-resistant strain (Emmaville) of L. cuprina are tested. First stage larvae are exposed to differing concentrations (aimed to achieve 0-100% prevention of adult fly emergence) of dicyclanil, diflubenzuron or a combination of the two actives (at the ratio used in the invention). The number of larvae forming pupae and the number of pupae producing viable adult flies are recorded. The level of diflubenzuron resistance in the Emmaville strain prevents achieving complete inhibition of adult fly emergence with diflubenzuron. Maximum mortality is 41% at 300 mg diflubenzuron/kg. The limit of solubility of diflubenzuron precludes the testing of higher concentrations.

[2] = Tissue residue study in sheep; format: in vivo; details: 2, 3, 4, 5, 6 or 17 weeks after treatment with the invention; none above Limit of Quantitation
Procedure: Tissue residue studies are carried out to determine the period after treatment where the produce of treated animals cannot be used for human consumption. The proposed maximum dose rate for the invention is used in this evaluation. Sheep are treated with the invention at the commencement of the study and at pre-defined intervals thereafter, groups of sheep are humanely sacrificed and the appropriate target tissues (liver, kidney, muscle, fat) are recovered and subsequently analyzed (under Good Laboratory Practice conditions) for the presence of active ingredients (and their metabolites if necessary).
The residue definition for dicyclanil in Australia is the sum of dicyclanil and its metabolite CGA 297′107. Considering this, in the course of this study the mean maximum residue concentrations were detected at two and three weeks post-treatment.
The residue definition for diflubenzuron in Australia is expressed as only diflubenzuron. In this study there were no detectable residues in individual tissues (liver, kidney, subcutaneous fat, renal fat) from any animal above the Limit of Quantitation (0.025 mg/kg) at 2, 3, 4, 5, 6 or 17 weeks after treatment.

O=C(NC(=O)c1c(F)cccc1F)Nc1ccc(Cl)cc1 [diflubenzuron, 1-(4-chlorophenyl)-3-(2,6-difluorobenzoyl)urea]
Maximum mortality ([1]; Emmaville strain, 300 mg diflubenzuron/kg): 41% | diflubenzuron residues in individual tissues (liver, kidney, subcutaneous fat, renal fat) [2]: < 0.025 mg/kg

N#Cc1c(N)nc(NC2CC2)nc1N [dicyclanil, 4,6-diamino-2-cyclopropylaminopyrimidine-5-carbonitrile]
Emmaville strain response to dicyclanil ([1]; Emmaville strain compared with LS): typical of a susceptible strain
